The results in this text go back to BindingDB's records for patent US20240299360 (Jiangsu Hengrui Pharmaceuticals, 2024).

Values joined by “and” are separate entries in the source; they are usually repeats but may differ in a detail not shown here. Identical values can stand only once.

Assay [1] has as its target T1, A disintegrin and metalloproteinase with thrombospondin motifs 4 (Homo sapiens, UniProt O75173).
T1 sequence (O75173 whole entry): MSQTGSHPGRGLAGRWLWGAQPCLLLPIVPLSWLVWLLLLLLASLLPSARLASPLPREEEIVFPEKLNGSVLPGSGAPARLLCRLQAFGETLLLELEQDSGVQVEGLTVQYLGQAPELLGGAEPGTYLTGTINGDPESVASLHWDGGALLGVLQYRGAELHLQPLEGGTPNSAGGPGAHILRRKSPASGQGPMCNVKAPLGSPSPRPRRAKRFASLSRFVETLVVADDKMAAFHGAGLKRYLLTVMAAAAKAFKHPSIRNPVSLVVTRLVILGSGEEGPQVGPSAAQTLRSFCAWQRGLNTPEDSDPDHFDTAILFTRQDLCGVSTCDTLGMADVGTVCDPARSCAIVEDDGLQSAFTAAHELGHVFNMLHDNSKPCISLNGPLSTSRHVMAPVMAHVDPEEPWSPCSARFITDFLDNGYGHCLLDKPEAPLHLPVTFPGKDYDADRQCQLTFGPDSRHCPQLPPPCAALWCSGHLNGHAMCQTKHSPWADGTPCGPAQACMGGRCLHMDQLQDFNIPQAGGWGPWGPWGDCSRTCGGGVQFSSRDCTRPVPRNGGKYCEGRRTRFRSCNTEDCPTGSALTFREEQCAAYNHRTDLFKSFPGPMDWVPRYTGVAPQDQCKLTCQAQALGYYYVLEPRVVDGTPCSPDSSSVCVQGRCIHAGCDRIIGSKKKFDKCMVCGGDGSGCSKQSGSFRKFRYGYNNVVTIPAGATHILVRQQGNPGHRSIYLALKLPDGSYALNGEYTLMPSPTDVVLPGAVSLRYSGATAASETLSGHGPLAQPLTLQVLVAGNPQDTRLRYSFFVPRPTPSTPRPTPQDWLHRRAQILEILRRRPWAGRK
In words: In Vitro Fluorescence Assay of ADAMTS-4 or ADAMTS-5 Activity. The method, then:
Table 1: A FRET (fluorescence resonance energy transfer) peptide was cleaved by recombinant ADAMTS-4 or ADAMTS-5 proteins into two separate fragments resulting in an increase of fluorescence signal which was quantified. The peptide was 5-FAM-TEGEARGSVILLK(5-TAMRA)K-NH2, customized from ANASPEC. ADAMTS-4 recombinant protein (catalog #4307-AD) and ADAMTS-5 recombinant protein (catalog #2198-AD) were purchased from R&D Systems. An assay buffer containing 50 mM HEPES pH 7.5, 100 mM NaCl, 5 mM CaCl2, 0.1% CHAPS and 5% Glycerol was prepared. A volume of 2.5 μl of compound in the assay buffer was dispensed to a 384-well plate, and 2.5 μl of ADAMTS-4 or ADAMTS-5 protein (final concentration in the reaction was 10 nM) was added. The compounds and proteins were pre-incubated at room temperature for 15 minutes. Then, 5 μl of substrate was added to each well. The final substrate concentrations for ADAMTS-4 and ADAMTS-5 were 15 μM and 8 μM, respectively. The fluorescence signal in each well was determined, after incubation at 37° C. for 3 hours, on a TECAN plate reader (Excitation, 490 nm; Emission, 520 nm).

In assay [2] the target is T2, A disintegrin and metalloproteinase with thrombospondin motifs 5 (Homo sapiens, UniProt Q9UNA0).
T2 sequence (Q9UNA0 whole entry): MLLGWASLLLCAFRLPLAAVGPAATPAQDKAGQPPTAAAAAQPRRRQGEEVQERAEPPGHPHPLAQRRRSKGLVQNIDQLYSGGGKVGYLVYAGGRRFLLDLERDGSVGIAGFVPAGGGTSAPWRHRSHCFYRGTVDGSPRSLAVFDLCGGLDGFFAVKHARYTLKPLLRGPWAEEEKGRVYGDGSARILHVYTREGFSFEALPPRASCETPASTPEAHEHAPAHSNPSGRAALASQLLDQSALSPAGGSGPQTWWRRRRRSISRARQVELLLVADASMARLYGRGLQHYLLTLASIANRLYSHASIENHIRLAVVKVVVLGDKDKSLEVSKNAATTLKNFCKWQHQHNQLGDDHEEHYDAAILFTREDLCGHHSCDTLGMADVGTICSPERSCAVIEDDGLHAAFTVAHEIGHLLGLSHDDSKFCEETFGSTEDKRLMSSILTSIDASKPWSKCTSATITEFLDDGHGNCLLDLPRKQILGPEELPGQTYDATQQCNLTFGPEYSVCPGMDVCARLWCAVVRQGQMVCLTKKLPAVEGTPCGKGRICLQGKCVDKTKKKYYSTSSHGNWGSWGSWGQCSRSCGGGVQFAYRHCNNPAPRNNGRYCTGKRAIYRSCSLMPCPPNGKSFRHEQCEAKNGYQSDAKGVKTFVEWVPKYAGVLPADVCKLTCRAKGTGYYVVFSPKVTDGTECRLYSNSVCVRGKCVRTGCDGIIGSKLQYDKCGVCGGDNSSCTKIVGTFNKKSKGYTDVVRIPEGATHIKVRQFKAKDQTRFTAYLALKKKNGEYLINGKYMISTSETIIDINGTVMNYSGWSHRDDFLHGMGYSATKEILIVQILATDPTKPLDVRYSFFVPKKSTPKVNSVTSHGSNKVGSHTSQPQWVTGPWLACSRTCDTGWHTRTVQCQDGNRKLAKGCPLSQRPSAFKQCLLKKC
In words: In Vitro ELISA (Enzyme-Linked Immunosorbent Assay) of ADAMTS-5 Activity. As for the experimental part:
Table 2: In this assay, the enzymatic activity of recombinant ADAMTS-5 protein (catalog #2198-AD, R&D Systems) was assayed with a protein substrate, the aggrecan IGD protein. The aggrecan IGD protein is a polypeptide connecting human aggrecan globular domains 1 and 2 (T331-G458) expressed in E. Coli with a C-terminal His-tag (catalog #30411000, BIOTEZ). The enzymatic product ARGSVIL-peptide was detected using an ELISA kit from BioTEZ (catalog #30510111). An assay buffer containing 50 mM HEPES pH 7.5, 100 mM NaCl, 5 mM CaCl2), 0.1% CHAPS and 5% Glycerol was prepared. Recombinant ADAMTS-5 protein was diluted to 0.3 nM in the assay buffer. […] and 10 μl of compound solution was transferred to each well of a 96-well plate and incubated at room temperature for 15 minutes. Substrate aggrecan-IGD was diluted to 100 nM with the assay buffer and 20 μl was added to each well. The plate was incubated at 37° C. for 45 minutes. After incubation, the newly generated epitope ARGSVIL-peptides were measured using the Aggrecanase Activity ELISA Assay Kit following the manufacturer's instructions. Then, 100 μl of stop solution was added and the absorbance of each well was read at 450 nm, using […] as reference on a TECAN plate reader.
In general terms: An ELISA detects its analyte on a solid surface through an enzyme-linked reagent.

Regarding `CC(C[C@@]1(C2CC2)NC(=O)NC1=O)C(=O)N1Cc2cc(Cl)c(Cl)cc2C1C` (some centres not stated) [US20240299360, Example 70], the IC50 in assay [1] was 0.02 µM; in assay [2], 0.026 µM and 0.083 µM.

One may read the IC50 as the midpoint of a concentration-inhibition curve.
